Five compounds from US6376488B1, “Benzoxazine α-1 adrenergic compounds” (Abbott Laboratories, priority 2000, dated 2002) can be followed below.

Counter-ions that a name gives are not always drawn.

Experiment [1] has as its target T1, α1a (bovine) adrenoreceptor (Bos taurus, UniProt P18130).
T1 sequence (P18130 1-466): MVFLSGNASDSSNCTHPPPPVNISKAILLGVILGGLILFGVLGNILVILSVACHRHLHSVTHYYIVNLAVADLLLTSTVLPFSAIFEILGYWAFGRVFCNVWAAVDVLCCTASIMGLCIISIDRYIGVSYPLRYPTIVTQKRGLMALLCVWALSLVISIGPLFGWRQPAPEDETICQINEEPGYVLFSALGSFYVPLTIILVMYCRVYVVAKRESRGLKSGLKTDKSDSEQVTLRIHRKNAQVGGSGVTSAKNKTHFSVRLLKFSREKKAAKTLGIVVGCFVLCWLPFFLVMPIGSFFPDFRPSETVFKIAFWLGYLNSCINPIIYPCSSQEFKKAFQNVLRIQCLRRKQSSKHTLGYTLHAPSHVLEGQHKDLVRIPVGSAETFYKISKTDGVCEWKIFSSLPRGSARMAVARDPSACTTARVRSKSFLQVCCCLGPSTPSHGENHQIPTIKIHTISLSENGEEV
Briefly: [3H]-prazosin radioligand binding, cloned α1a (bovine) adrenoreceptor in LTK cells. Particulars: cloned receptor in LTK cell membranes, [3H]prazosin 0.2 nM. The protocol:
(§1) Representative compounds of the invention were evaluated for α adrenoreceptor binding affinity in vitro using [^3H]-prazosin as the radioligand and following four cloned α1, adrenoreceptors expressed in LTK cells: α1a (rat), α1a (bovine), α1b : (hampster), and α1d (rat).
(§2) The cDNA clones encoding the α1, adrenoreceptors were obtained from TULCO (Triangle Universities Licensing Consortium, Research Triangle Park, N.C.) and inserted into the eukaryotic expression vector SnaB30. In this vector, expression of the adrenoreceptor gene is under the transcriptional control of an SV40 early promoter. Positive drug selection is provided by a neomycin-resistance gene. Mouse fibroblast cells (LTK) were transfected with the α1 expression plasmids and grown in Dulbecco's modified Eagle's medium (DMEM) containing 10% fetal calf serum and 30 μM G418. Stable G418-resistant parental lines were generated with successful expression of adrenoreceptor protein monitored using radioligand binding techniques. Stable single cell clones derived from the parental lines were screened in adrenoreceptor binding assays to identify clones having high adrenoreceptor density. Roller bottle cultures of the cloned lines were used to provide cell membranes for subsequent adrenoreceptor binding characterization studies. A cell line containing the SnaB30 vector expressing the human erythropoietin gene served as a negative control.
(§3) For adrenoreceptor binding assays, large scale membrane preparations were utilized in which 6 million cells were seeded into small (450 cm^2) Coming tissue culture roller bottles. DMEM (200 mL) containing 10% fetal calf serum and 300 μM G418 were added to each roller bottle. A 95% air/5% CO2 gas mixture (sterile) was injected into each roller bottle prior to sealing, and the bottles were then incubated at 37° C. on a roller rack for 5 days. Cells were refed with fresh medium after 3 days in culture.
(§4) On the fifth day of culture, growth medium was removed from cells grown in roller bottles, and the cells were washed twice with PBS (Sigma, 120 mM NaCl, 2.7 mM KCl, 10 mM Na2HPO4-NaH2PO4, pH=7.4). Cells were detached from the roller bottles by incubating for 15 minutes at 37° C. in a Tris-EDTA solution (10 mM Tris, 100 mM NaCl, 1 mM EDTA, pH=7.4). The cell suspension from each roller bottle was decanted into tared centrifuge tubes and kept on ice. An aliquot of each cell suspension was generally taken for cell counting. Cells were centrifuged at 3000×G for 5 minutes at 2-4° C., washed with PBS and recentrifuged. The supernatant was decanted, and the pellet was weighed to determine the wet weight of cells. Cells were washed a final time in 40 vol 5 mM Tris-HCl, 5 mM EDTA, pH=7.7 and centrifuged at 40,000×G for 10 minutes (“vol” indicates volume/weight, e.g., a “vol” of 40 would indicate that the one gram of cells were washed with 40 mls of buffer). Cells were homogenized in of 50 mM Tris-HCl, 5 mM EDTA (pH=7.4) (10 mL) and diluted to 40 mL/tube. Homogenates were centrifuged at 40,000×G for 10 minutes. The supernatant was decanted and the pellets rehomogenized in 50 mM Tris-HCl (pH=7.4) and centrifuged as before. The supernatant was decanted and the homogenate was resuspended in 6.25 volumes (per gram wet weight) of 50 mM Tris-HCl and aliquots of the pooled homogenates frozen in liquid N2 and,stored at −70° C. until the time of assay.
(§5) Receptor binding assays for α1 adrenoreceptors were performed essentially as described by Greengrass and Bremner (Eur. J. Pharmacol. 55: 323-326 (1979)). […] Following equilibration, bound radioligand was separated from free on GF/B filters (presoaked in 0.5% polyethyleneimine) using ither a Brandel or Packard cell harvester. Radioactivity was determined by standard liquid scintillation techniques. Data were analyzed as previously described (Hancock, A. A., Kyncl, J. J., Martin, Y. C. and DeBemardis, J. F., J. Receptor Res. 8: 23-46 (1988)). The in Table 1.

A further experiment concerns the target T2, α1d (rat) adrenoreceptor (Rattus norvegicus, UniProt P23944).
T2 sequence (P23944 1-561): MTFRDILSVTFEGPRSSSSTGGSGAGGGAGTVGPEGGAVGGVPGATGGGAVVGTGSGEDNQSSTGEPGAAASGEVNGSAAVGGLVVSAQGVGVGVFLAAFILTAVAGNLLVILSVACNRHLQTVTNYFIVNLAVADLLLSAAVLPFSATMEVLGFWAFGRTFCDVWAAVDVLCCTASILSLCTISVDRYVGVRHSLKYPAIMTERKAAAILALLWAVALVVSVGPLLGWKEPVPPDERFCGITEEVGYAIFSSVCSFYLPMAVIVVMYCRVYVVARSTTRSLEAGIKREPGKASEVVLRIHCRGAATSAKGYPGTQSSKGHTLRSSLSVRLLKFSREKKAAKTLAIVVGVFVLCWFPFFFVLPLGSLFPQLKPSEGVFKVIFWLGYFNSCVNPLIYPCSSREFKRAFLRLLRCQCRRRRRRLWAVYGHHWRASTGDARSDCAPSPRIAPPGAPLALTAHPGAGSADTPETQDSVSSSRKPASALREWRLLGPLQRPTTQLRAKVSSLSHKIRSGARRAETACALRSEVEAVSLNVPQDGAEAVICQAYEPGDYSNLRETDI
Briefly: [3H]-prazosin radioligand binding, cloned α1d (rat) adrenoreceptor in LTK cells. Particulars: cloned receptor in LTK cell membranes, [3H]prazosin 0.2 nM. The protocol:
as §1, §2, §3, §4, §5

The term Ki denotes a measure of affinity in units of concentration, obtained from inhibition or displacement. Consider `O=c1[nH]c2c(sc3cccnc32)c(=O)n1CCCN1CCN2c3ccccc3OCC2C1` (single isomer, unassigned; (-)) [Example 2, (−) 3-[3-(1,2,4a,5-tetrahydropyrazino[2,1-c][1,4]benzoxazin-3(4H)-yl)propyl]pyrido[2′,3′:4,5]thieno[3,2-d]pyrimidine-2,4(1H,3H)-dione dihydrochloride], for which the results for the inhibition constant Ki (in experiment [1]; on α1d (rat) adrenoreceptor) were 13.8 nM and 69.8 nM, respectively.
Regarding `COc1cccc2c1N1CCN(CCCCn3c(=O)[nH]c4c(sc5ncc(Cl)nc54)c3=O)CC1CO2.Cl.Cl` (single isomer, unassigned; (-)) [Example 12, (−) 3-[4-(10-methoxy-1,2,4a,5-tetrahydropyrazino[2,1-c][1,4]benzoxazin-3(4H)-yl)butyl]-8-chloropyrazino[2′,3′:4,5]thieno[3,2-d]pyrimidine-2,4(1H,3H)-dione dihydrochloride], the inhibition constant Ki is 0.41 nM in experiment [1] and 1.15 nM on α1d (rat) adrenoreceptor.
Turning to `COc1cccc2c1N1CCN(CCCCn3c(=O)[nH]c4c(sc5ncccc54)c3=O)CC1CO2` (single isomer, unassigned; (-)) [Example 11, (−) 3-[4-(10-methoxy-1,2,4a,5-tetrahydropyrazino[2,1-c][1,4]benzoxazin-3(4H)-yl)butyl]pyrido[3′,2′:4.5]thieno[3,2-d]pyrimidine-2,4(1H,3H)-dione trihydrochloride], the Ki was found to be 0.387 nM in experiment [1] and 0.427 nM at α1d (rat) adrenoreceptor.
Consider `COc1cccc2c1N1CCN(CCn3c(=O)[nH]c4c(sc5cccnc54)c3=O)CC1CO2.Cl.Cl` (single isomer, unassigned; (-)) [Example 7, (−) 3-[2-(10methoxy-1,2,4a,5-tetrahydropyrazino[2,1-c][1,4]benzoxazin-3(4H)-yl)ethyl]pyrido[2′,3′:4,5]thieno[3,2-d]pyrimidine-2,4(1H,3H)-dione dihydrochloride], for which the Ki in experiment [1] was found to be 0.251 nM; at α1d (rat) adrenoreceptor it was 1.13 nM.
“(−) 3-[3-(10-methoxy-1,2,4a,5-tetrahydropyrazino[2,1-c][1,4]benzoxazin-3(4H)-yl)butyl]pyrido[2′,3′:4,5]thieno[3,2-d]pyrimidine-2,4(1H,3H)-dione trihydrochloride [Example 10]”: the inhibition constant Ki in experiment [1] is 0.243 nM; on α1d (rat) adrenoreceptor, 0.344 nM.
